From patent US10428104B2, “Substituted nucleoside derivatives useful as anticancer agents” (Pfizer Inc., priority 2015, dated 2019)

Experiments:
[1] = tested on: A549 lung adenocarcinoma cells; assay: A549 proliferation assay (Cell Titer Glo, 7 days); type: cell-based; details: Homo sapiens, 168 h, 7 days with compound, cell viability by Cell Titer Glo (ATP)
Method: A549 lung adenocarcinoma cells (American Type CuIture Collection) were maintained in DMEM growth media (Life Technologies) supplemented with 10% v/v heat inactivated fetal bovine serum (Sigma) and cultured at 37° C., 5% CO2. Exponentially growing A549 cells were plated in 96-well black tissue culture treated plates (Corning) at a density of 2500 cells/ml in a volume of 100 μl culture media and allowed to adhere overnight at 37° C., 5% CO2. The following day, compound plates were prepared by making nine-point 3.3-fold dilutions in DMSO with a top concentration of 10 mM. Compounds were further diluted in culture media and 11 μl was added to the cells (final top assay concentration was 10 μM and DMSO was […]). Cells were incubated with compound at 37° C., 5% CO2 for 7 days with media and compound replacement on day 4. Cell viability was assayed on Day 7 by adding 100 μl Cell Titer Glo (Promega) reagent to the plate to measure the amount of ATP present in the cells. Luminescence was read using the Envision 2104 Multilabel Reader (Perkin Elmer).
Results for the A549 proliferation assay of examples are summarized in Table 2, shown as IC50 values in μM.

[2] = biological target: PRMT5/MEP50 protein complex (Homo sapiens (Human), UniProt O14744); assay: PRMT5 biochemical assay (3H-SAM methylation of H4(1-21) peptide, filter plate scintillation counting); details: PRMT5 enzyme inhibition; 10 nM PRMT5/MEP50 complex, 200 nM H4(1-21) peptide, 1 uM SAM, 25 minute incubation at room temperature
Sequence of PRMT5/MEP50 protein complex (O14744 other isoform, or with tags, fused parts or gaps): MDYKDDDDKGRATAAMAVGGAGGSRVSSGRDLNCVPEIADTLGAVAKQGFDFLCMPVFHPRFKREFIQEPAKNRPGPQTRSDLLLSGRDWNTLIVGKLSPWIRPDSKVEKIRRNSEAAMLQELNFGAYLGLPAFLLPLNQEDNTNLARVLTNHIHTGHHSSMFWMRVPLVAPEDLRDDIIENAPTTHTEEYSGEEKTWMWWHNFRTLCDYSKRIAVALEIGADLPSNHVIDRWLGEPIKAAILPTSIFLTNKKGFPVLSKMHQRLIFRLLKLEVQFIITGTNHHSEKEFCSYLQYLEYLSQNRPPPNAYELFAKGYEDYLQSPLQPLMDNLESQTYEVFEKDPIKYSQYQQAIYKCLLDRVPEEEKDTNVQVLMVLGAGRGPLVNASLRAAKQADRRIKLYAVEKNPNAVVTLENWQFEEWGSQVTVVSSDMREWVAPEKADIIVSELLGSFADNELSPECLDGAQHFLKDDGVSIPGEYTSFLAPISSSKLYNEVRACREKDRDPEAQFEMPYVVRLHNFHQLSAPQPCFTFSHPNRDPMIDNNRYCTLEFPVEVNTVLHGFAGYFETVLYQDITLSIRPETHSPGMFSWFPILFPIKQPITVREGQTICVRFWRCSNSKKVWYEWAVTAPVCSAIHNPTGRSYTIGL
Sequence of PRMT5/MEP50 protein complex (Q9BQA1 whole entry partner): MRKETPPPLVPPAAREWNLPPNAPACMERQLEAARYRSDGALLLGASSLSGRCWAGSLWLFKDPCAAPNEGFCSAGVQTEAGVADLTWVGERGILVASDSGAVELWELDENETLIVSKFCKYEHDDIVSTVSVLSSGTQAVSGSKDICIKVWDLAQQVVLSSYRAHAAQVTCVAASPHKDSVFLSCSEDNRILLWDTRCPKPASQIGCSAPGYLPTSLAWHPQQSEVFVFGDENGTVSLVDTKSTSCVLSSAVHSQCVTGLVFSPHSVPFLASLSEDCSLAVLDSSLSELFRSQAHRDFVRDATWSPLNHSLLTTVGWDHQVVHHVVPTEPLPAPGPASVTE
Procedure, shortened: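 Flag-PRMT5/MEP50 was co-expressed in Sf21 cells and Flag-affinity purified. Reactions used 10 nM complex, 200 nM H4(1-21) peptide and 1 uM 3H-SAM (final) in 50 mM Tris pH 8.5, 50 mM NaCl, 5 mM MgCl2, 1 mM EDTA and 1 mM TCEP, run 25 min at room temperature. Reactions were TCA-stopped, filter-captured and scintillation-counted; IC50 came from a 4-parameter fit.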

SMILES | IC50 [1] [nM] | IC50 [2] [nM]
Nc1ncnc2c1c(I)cn2[C@@H]1O[C@H]([C@H](O)c2ccc(F)c(F)c2)[C@@H](O)[C@H]1O [Example 119, (2R,3R,4S,5R)-2-(4-amino-5-iodo-7H-pyrrolo[2,3-d]pyrimidin-7-yl)-5-((R)-(3,4-difluorophenyl)(hydroxy)methyl)tetrahydrofuran-3,4-diol] | 322 | 7
Cc1ncnc2c1ccn2[C@@H]1O[C@H]([C@@H](C)O)[C@@H](O)[C@H]1O [Example 44, (2R,3S,4R,5R)-2-((R)-1-hydroxyethyl)-5-(4-methyl-7H-pyrrolo[2,3-d]pyrimidin-7-yl)tetrahydrofuran-3,4-diol] | 3400 | 52
Cc1ncnc2c1ccn2[C@@H]1O[C@H]([C@H](O)c2ccc(F)cc2)[C@@H](O)[C@H]1O [Example 38, (2R,3S,4R,5R)-2-((R)-(4-fluorophenyl)(hydroxy)methyl)-5-(4-methyl-7H-pyrrolo[2,3-d]pyrimidin-7-yl)tetrahydrofuran-3,4-diol] | 42 | 5
Cc1ncnc2c1ccn2[C@@H]1O[C@H]([C@@H](O)c2ccc(F)cc2)[C@@H](O)[C@H]1O [Example 39, (2R,3S,4R,5R)-2-((S)-(4-fluorophenyl)(hydroxy)methyl)-5-(4-methyl-7H-pyrrolo[2,3-d]pyrimidin-7-yl)tetrahydrofuran-3,4-diol] | 10500 | 1550
Cc1cc([C@@H](O)[C@H]2O[C@@H](n3ccc4c(C)ncnc43)[C@H](O)[C@@H]2O)ccc1F [Example 10, (2R,3S,4R,5R)-2-((R)-(4-fluoro-3-methylphenyl)(hydroxy)methyl)-5-(4-methyl-7H-pyrrolo[2,3-d]pyrimidin-7-yl)tetrahydrofuran-3,4-diol] | 43 | 7
Cc1ncnc2c1ccn2[C@@H]1O[C@H]([C@H](O)c2cccc(Cl)c2)[C@@H](O)[C@H]1O [Example 32, (2R,3S,4R,5R)-2-((R)-(3-chlorophenyl)(hydroxy)methyl)-5-(4-methyl-7H-pyrrolo[2,3-d]pyrimidin-7-yl)tetrahydrofuran-3,4-diol] | 25 | 5
Nc1ncnc2c1ncn2[C@@H]1O[C@H]([C@H](O)c2ccc(F)c(F)c2)[C@@H](O)[C@H]1O [Example 84, (2R,3R,4S,5R)-2-(6-amino-9H-purin-9-yl)-5-((R)-(3,4-difluorophenyl)(hydroxy)methyl)tetrahydrofuran-3,4-diol] | 48 | –
Cc1ncnc2c1ccn2[C@@H]1O[C@H]([C@@H](O)c2ccccc2)[C@@H](O)[C@H]1O [Example 27, (2R,3S,4R,5R)-2-((S)-hydroxy(phenyl)methyl)-5-(4-methyl-7H-pyrrolo[2,3-d]pyrimidin-7-yl)tetrahydrofuran-3,4-diol] | 8700 | 5170
Cc1ncnc2c1ccn2[C@@H]1O[C@H]([C@H](O)c2cccc3c2CNCC3)[C@@H](O)[C@H]1O [Example 112, (2R,3S,4R,5R)-2-((R)-hydroxy(1,2,3,4-tetrahydroisoquinolin-8-yl)methyl)-5-(4-methyl-7H-pyrrolo[2,3-d]pyrimidin-7-yl)tetrahydrofuran-3,4-diol] | 350 | 1
Nc1ncnc2c1c(F)cn2[C@@H]1O[C@H]([C@H](O)c2ccc(F)c(F)c2)[C@@H](O)[C@H]1O [Example 60, (2R,3R,4S,5R)-2-(4-amino-5-fluoro-7H-pyrrolo[2,3-d]pyrimidin-7-yl)-5-((R)-(3,4-difluorophenyl)(hydroxy)methyl)tetrahydrofuran-3,4-diol] | 10 | 2
Cc1nc(N)nc2c1ccn2[C@@H]1O[C@H]([C@H](O)c2ccc(F)cc2)[C@@H](O)[C@H]1O [Example 64, (2R,3R,4S,5R)-2-(2-amino-4-methyl-7H-pyrrolo[2,3-d]pyrimidin-7-yl)-5-((R)-(4-fluorophenyl)(hydroxy)methyl)tetrahydrofuran-3,4-diol] | 18 | 5
CC[C@@H](O)[C@H]1O[C@@H](n2ccc3c(C)nc(N)nc32)[C@H](O)[C@@H]1O [Example 62, (2R,3R,4S,5R)-2-(2-amino-4-methyl-7H-pyrrolo[2,3-d]pyrimidin-7-yl)-5-((R)-1-hydroxypropyl)tetrahydrofuran-3,4-diol] | 2300 | 52
Cc1ncnc2c1ccn2[C@@H]1O[C@H]([C@H](O)c2ccccc2)[C@@H](O)[C@H]1O [Example 26, (2R,3S,4R,5R)-2-((R)-hydroxy(phenyl)methyl)-5-(4-methyl-7H-pyrrolo[2,3-d]pyrimidin-7-yl)tetrahydrofuran-3,4-diol] | 211 | 18
Nc1ncnc2c1c(F)cn2[C@@H]1O[C@H]([C@H](O)c2ccc(F)cn2)[C@@H](O)[C@H]1O [Example 83, (2R,3R,4S,5R)-2-(4-amino-5-fluoro-7H-pyrrolo[2,3-d]pyrimidin-7-yl)-5-((R)-(5-fluoropyridin-2-yl)(hydroxy)methyl)tetrahydrofuran-3,4-diol] | 323 | 13
Nc1ncnc2c1c(F)cn2[C@@H]1O[C@H]([C@H](O)c2ccc(F)cc2)[C@@H](O)[C@H]1O [Example 61, (2R,3R,4S,5R)-2-(4-amino-5-fluoro-7H-pyrrolo[2,3-d]pyrimidin-7-yl)-5-((R)-(4-fluorophenyl)(hydroxy)methyl)tetrahydrofuran-3,4-diol] | 14 | 3
Cc1ncnc2c1ccn2[C@@H]1O[C@H]([C@H](O)c2cnn(C)c2)[C@@H](O)[C@H]1O [Example 50, (2R,3S,4R,5R)-2-((R)-hydroxy(1-methyl-1H-pyrazol-4-yl)methyl)-5-(4-methyl-7H-pyrrolo[2,3-d]pyrimidin-7-yl)tetrahydrofuran-3,4-diol] | 3200 | –
Cc1ncnc2c1ccn2[C@@H]1O[C@H]([C@@H](O)c2cc(F)cc(F)c2)[C@@H](O)[C@H]1O [Example 37, (2R,3S,4R,5R)-2-((S)-(3,5-difluorophenyl)(hydroxy)methyl)-5-(4-methyl-7H-pyrrolo[2,3-d]pyrimidin-7-yl)tetrahydrofuran-3,4-diol] | 3000 | 2640

Next, values leading:

IC50 [1] [nM] | IC50 [2] [nM] | SMILES
16 | – | Cc1ncnc2c1ccn2[C@@H]1O[C@H]([C@H](O)c2ccc(F)c(F)c2)[C@@H](O)[C@H]1O [Example 9, (2R,3S,4R,5R)-2-((R)-(3,4-difluorophenyl)(hydroxy)methyl)-5-(4-methyl-7H-pyrrolo[2,3-d]pyrimidin-7-yl)tetrahydrofuran-3,4-diol]
3 | 1 | Nc1ncnc2c1ccn2[C@@H]1O[C@H]([C@H](O)c2ccc(Cl)c(F)c2)[C@@H](O)[C@H]1O [Example 88, (2R,3R,4S,5R)-2-(4-amino-7H-pyrrolo[2,3-d]pyrimidin-7-yl)-5-((R)-(4-chloro-3-fluorophenyl)(hydroxy)methyl)tetrahydrofuran-3,4-diol]
1640 | 5 | N[C@H](c1ccc(Cl)c(F)c1)[C@H]1O[C@@H](n2ccc3cncnc32)[C@H](O)[C@@H]1O [Example 116, (2R,3S,4R,5R)-2-((R)-amino(4-chloro-3-fluorophenyl)methyl)-5-(7H-pyrrolo[2,3-d]pyrimidin-7-yl)tetrahydrofuran-3,4-diol]
5 | 1 | Nc1ncnc2c1ccn2[C@@H]1O[C@H]([C@H](O)c2ccc(Cl)cc2)[C@@H](O)[C@H]1O [Example 87, (2R,3R,4S,5R)-2-(4-amino-7H-pyrrolo[2,3-d]pyrimidin-7-yl)-5-((R)-(4-chlorophenyl)(hydroxy)methyl)tetrahydrofuran-3,4-diol]
9 | 2 | Nc1ncnc2c1ccn2[C@@H]1O[C@H]([C@H](O)c2ccc(F)cc2)[C@@H](O)[C@H]1O [Example 86, (2R,3R,4S,5R)-2-(4-amino-7H-pyrrolo[2,3-d]pyrimidin-7-yl)-5-((R)-(4-fluorophenyl)(hydroxy)methyl)tetrahydrofuran-3,4-diol]
15 | 3 | Cc1ncnc2c1ccn2[C@@H]1O[C@H]([C@H](O)c2ccc(F)c(Cl)c2)[C@@H](O)[C@H]1O [Example 11, (2R,3S,4R,5R)-2-((R)-(3-chloro-4-fluorophenyl)(hydroxy)methyl)-5-(4-methyl-7H-pyrrolo[2,3-d]pyrimidin-7-yl)tetrahydrofuran-3,4-diol]
257 | 14 | Cc1ncnc2c1ccn2[C@@H]1O[C@H]([C@H](F)c2ccc(F)c(F)c2)[C@@H](O)[C@H]1O [Example 92, (2S,3S,4R,5R)-2-((R)-(3,4-difluorophenyl)fluoromethyl)-5-(4-methyl-7H-pyrrolo[2,3-d]pyrimidin-7-yl)tetrahydrofuran-3,4-diol]
1780 | – | Cc1ncnc2c1ccn2[C@@H]1O[C@H]([C@H](N)c2ccc(F)c(F)c2)[C@@H](O)[C@H]1O [Example 94, (2R,3S,4R,5R)-2-((R)-amino(3,4-difluorophenyl)methyl)-5-(4-methyl-7H-pyrrolo[2,3-d]pyrimidin-7-yl)tetrahydrofuran-3,4-diol]
